pKi: −log10 of the molar value.
The molecules below were run against human NK3 receptor (Homo sapiens (Human), UniProt P29371) (assay: [3H]SR142801 competition binding assay). Conditions: not given.
Procedure: hNK3 receptor binding experiment were performed using [^3H]SR142801 (Catalog No. TRK1035, specific activity: 74.0 Ci/mmol, Amersham, GE Healthcare UK limited, Buckinghamshire, UK) and membrane isolated from HEK293 cells transiently expressing recombinant human NK3 receptor. After thawing, the membrane homogenates were centrifuged at 48,000×g for 10 min at 4° C., the pellets were resuspended in the 50 mM Tris-HCl, 4 mM MnCl2, 1 μM phosphoramidon, 0.1% BSA binding buffer at pH 7.4 to a final assay concentration of 5 μg protein/well. […] At the end of the incubation, membranes were filtered onto unitfilter (96-well white microplate with bonded GF/C filter preincubated 1 h in 0.3% PEI+0.3% BSA, Packard BioScience, Meriden, Conn.) with a Filtermate 196 harvester (Packard BioScience) and washed 4 times with ice-cold 50 mM Tris-HCl, pH 7.4 buffer. Nonspecific binding was measured in the presence of 10μM SB222200 for both radioligands. The radioactivity on the filter was counted (5 min) on a Packard Top-count microplate scintillation counter with quenching correction after addition of 45 μl of microscint 40 (Canberra Packard S.A., Ziirich, Switzerland) and shaking for 1 h. Inhibition curves were fitted according to the Hill equation: y=100/(1+(x/IC50), where nH=slope factor using Excel-fit 4 software (Microsoft). IC50 values were derived from the inhibition curve and the affinity constant (Ki) values were calculated using the Cheng-Prussoff equation Ki =IC50/(1+[L]/KD) where [L] is the concentration of radioligand and KD is its dissociation constant at the receptor, derived from the saturation isotherm. All experiments were performed in duplicate and the mean±standard error (SEM) of the individual Ki values was calculated.

human NK3 receptor, sequence (P29371 whole entry): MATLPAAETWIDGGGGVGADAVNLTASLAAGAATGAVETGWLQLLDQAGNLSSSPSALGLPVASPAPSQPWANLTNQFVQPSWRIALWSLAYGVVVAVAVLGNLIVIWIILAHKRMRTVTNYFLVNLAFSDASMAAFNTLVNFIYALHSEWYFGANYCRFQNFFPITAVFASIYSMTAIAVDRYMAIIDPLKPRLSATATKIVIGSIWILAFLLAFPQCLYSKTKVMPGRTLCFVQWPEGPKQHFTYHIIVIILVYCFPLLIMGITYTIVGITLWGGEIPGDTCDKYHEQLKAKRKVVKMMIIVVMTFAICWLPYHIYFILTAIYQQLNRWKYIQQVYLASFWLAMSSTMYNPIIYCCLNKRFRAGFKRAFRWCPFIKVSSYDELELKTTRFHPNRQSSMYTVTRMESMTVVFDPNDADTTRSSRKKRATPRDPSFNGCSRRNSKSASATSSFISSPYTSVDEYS

Compound | pKi
CN(C(=O)Oc1ccc(F)cc1)[C@@H]1CN(C(=O)C2CCN(C(=O)C3(C)CC3)CC2)C[C@@]1(C)c1ccc(Cl)cc1 (racemic) [Example 21, rac-{(3S,4R)-4-(4-Chloro-phenyl)-4-methyl-1-[1-(1-methyl-cyclopropanecarbonyl)-piperidine-4-carbonyl]-pyrrolidin-3-yl}-methyl-carbamic acid 4-fluoro-phenyl ester] | 7.50
CN(C(=O)Oc1ccc(F)cc1)[C@@H]1CN(C(=O)C2CCN(C3CCCCC3)CC2)C[C@@]1(C)c1ccc(Cl)cc1 [Example 25, [(3S,4R)-4-(4-Chloro-phenyl)-1-(1-cyclohexyl-piperidine-4-carbonyl)-4-methyl-pyrrolidin-3-yl]-methyl-carbamic acid 4-fluoro-phenyl ester] | 7.04
CN(C(=O)Oc1ccc(F)cc1)[C@@H]1CN(C(=O)C2CCN(c3ccc(C#N)cc3)CC2)C[C@@]1(C)c1ccc(Cl)cc1 (racemic) [Example 22, rac-{(3S,4R)-4-(4-Chloro-phenyl)-1-[1-(4-cyano-phenyl)-piperidine-4-carbonyl]-4-methyl-pyrrolidin-3-yl}-methyl-carbamic acid 4-fluoro-phenyl ester] | 7.98
CC(=O)c1ccc(N2CCC(C(=O)N3C[C@@H](N(C)C(=O)Oc4ccc(F)cc4)[C@](C)(c4ccc(Cl)cc4)C3)CC2)nc1 (racemic) [Example 31, rac-[(3S,4R)-1-(5′-Acetyl-3,4,5,6-tetrahydro-2H-[1,2′]bipyridinyl-4-carbonyl)-4-(4-chloro-phenyl)-4-methyl-pyrrolidin-3-yl]-methyl-carbamic acid 4-fluoro-phenyl ester] | 8.09
COc1ccc(N2CCC(C(=O)N3C[C@@H](N(C)C(=O)Oc4ccc(F)cc4)[C@](C)(c4ccc(Cl)cc4)C3)CC2)nn1 (racemic) [Example 35, rac-{(3S,4R)-4-(4-Chloro-phenyl)-1-[1-(6-methoxy-pyridazin-3-yl)-piperidine-4-carbonyl]-4-methyl-pyrrolidin-3-yl}-methyl-carbamic acid 4-fluoro-phenyl ester] | 7.67
CN(C(=O)Oc1ccc(F)cc1)[C@@]1(C)CN(C(=O)C2CCN(c3ccc(C#N)cn3)CC2)C[C@@H]1c1ccc(Cl)cc1 (racemic) [Example 9, rac-[(3R,4S)-4-(4-Chloro-phenyl)-1-(5′-cyano-3,4,5,6-tetrahydro-2H-[1,2′]bipyridinyl-4-carbonyl)-3-methyl-pyrrolidin-3-yl]-methyl-carbamic acid 4-fluoro-phenyl ester] | 8.68
CN(C(=O)Oc1ccc(F)cc1)[C@@]1(C)CN(C(=O)C2CCN(C3CCCCC3)CC2)C[C@@H]1c1ccc(Cl)cc1 (racemic) [Example 2, rac-[(3R,4S)-4-(4-Chloro-phenyl)-1-(1-cyclohexyl-piperidine-4-carbonyl)-3-methyl-pyrrolidin-3-yl]-methyl-carbamic acid 4-fluoro-phenyl ester] | 7.70
CN(C(=O)Oc1ccc(F)cc1)[C@@]1(C)CN(C(=O)c2ccc(-c3ccc(F)cc3)cc2)C[C@@H]1c1ccc(Cl)cc1 (racemic) [Example 16, rac-[(3R,4S)-4-(4-Chloro-phenyl)-1-(4′-fluoro-biphenyl-4-carbonyl)-3-methyl-pyrrolidin-3-yl]-methyl-carbamic acid 4-fluoro-phenyl ester] | 6.52

Same assay, conditions: membranes from HEK293 cells transiently expressing recombinant human NK3 receptor; [3H]SR142801; Ki from IC50 by Cheng-Prussoff; read-out: Ki (uM) hNK3

Compound | Ki [µM]
CN(C(=O)Oc1ccc(F)cc1)[C@@H]1CN(C(=O)C2CCN(c3ccc(C(F)(F)F)cn3)CC2)C[C@@]1(C)c1ccc(Cl)cc1 (racemic) [Example 33, rac-[(3S,4R)-4-(4-Chloro-phenyl)-4-methyl-1-(5′-trifluoromethyl-3,4,5,6-tetrahydro-2H-[1,2′]bipyridinyl-4-carbonyl)-pyrrolidin-3-yl]-methyl-carbamic acid 4-fluoro-phenyl ester] | 0.02
CN(C(=O)Oc1ccc(F)cc1)[C@@]1(C)CN(C(=O)C2CCOCC2)C[C@@H]1c1ccc(Cl)cc1 (racemic) [Example 5, rac-[(3R,4S)-4-(4-Chloro-phenyl)-3-methyl-1-(tetrahydro-pyran-4-carbonyl)-pyrrolidin-3-yl]-methyl-carbamic acid 4-fluoro-phenyl ester] | 0.0864
CC(=O)N1CCC(C(=O)N2C[C@H](c3ccc(Cl)cc3)[C@@](C)(N(C)C(=O)Oc3ccc(F)cc3)C2)CC1 (racemic) [Example 4, rac-[(3R,4S)-1-(1-Acetyl-piperidine-4-carbonyl)-4-(4-chloro-phenyl)-3-methyl-pyrrolidin-3-yl]-methyl-carbamic acid 4-fluoro-phenyl ester] | 0.0116
CN(C(=O)Oc1ccc(F)cc1)[C@@H]1CN(C(=O)C2CCOCC2)C[C@@]1(C)c1ccc(Cl)cc1 (racemic) [Example 28, rac-[(3S,4R)-4-(4-Chloro-phenyl)-4-methyl-1-(tetrahydro-pyran-4-carbonyl)-pyrrolidin-3-yl]-methyl-carbamic acid 4-fluoro-phenyl ester] | 0.348
CN(C(=O)Oc1ccc(F)cc1)[C@@H]1CN(C(=O)C2CCN(c3ccc(C#N)cn3)CC2)C[C@@]1(C)c1ccc(Cl)cc1 (racemic) [Example 30, rac-[(3S,4R)-4-(4-Chloro-phenyl)-1-(5′-cyano-3,4,5,6-tetrahydro-2H-[1,2′]bipyridinyl-4-carbonyl)-4-methyl-pyrrolidin-3-yl]-methyl-carbamic acid 4-fluoro-phenyl ester] | 0.0053
CC(C)C(=O)N1CCC(C(=O)N2C[C@@H](N(C)C(=O)Oc3ccc(F)cc3)[C@](C)(c3ccc(Cl)cc3)C2)CC1 (racemic) [Example 24, rac-[(3S,4R)-4-(4-Chloro-phenyl)-1-(1-isobutyryl-piperidine-4-carbonyl)-4-methyl-pyrrolidin-3-yl]-methyl-carbamic acid 4-fluoro-phenyl ester] | 0.0392
CN(C(=O)Oc1ccc(F)cc1)[C@@]1(C)CN(C(=O)c2ccc(C#N)nc2)C[C@@H]1c1ccc(Cl)cc1 (racemic) [Example 14, rac-[(3R,4S)-4-(4-Chloro-phenyl)-1-(6-cyano-pyridine-3-carbonyl)-3-methyl-pyrrolidin-3-yl]-methyl-carbamic acid 4-fluoro-phenyl ester] | 0.0774
Cc1ccc(N2CCC(C(=O)N3C[C@H](c4ccc(Cl)cc4)[C@@](C)(N(C)C(=O)Oc4ccc(F)cc4)C3)CC2)nc1 (racemic) [Example 8, rac-[(3R,4S)-4-(4-Chloro-phenyl)-3-methyl-1-(5′-methyl-3,4,5,6-tetrahydro-2H-[1,2′]bipyridinyl-4-carbonyl)-pyrrolidin-3-yl]-methyl-carbamic acid 4-fluoro-phenyl ester] | 0.013
CN(C(=O)Oc1ccc(F)cc1)[C@@]1(C)CN(C(=O)C2CCN(c3ccc(C#N)cc3)CC2)C[C@@H]1c1ccc(Cl)cc1 (racemic) [Example 10, rac-{(3R,4S)-4-(4-Chloro-phenyl)-1-[1-(4-cyano-phenyl)-piperidine-4-carbonyl]-3-methyl-pyrrolidin-3-yl}-methyl-carbamic acid 4-fluoro-phenyl ester] | 0.0038
CN(C(=O)Oc1ccc(F)cc1)[C@@]1(C)CN(C(=O)C2CCN(c3ccc(C#N)nc3)CC2)C[C@@H]1c1ccc(Cl)cc1 (racemic) [Example 18, rac-[(3R,4S)-4-(4-Chloro-phenyl)-1-(6′-cyano-3,4,5,6-tetrahydro-2H-[1,3′]bipyridinyl-4-carbonyl)-3-methyl-pyrrolidin-3-yl]-methyl-carbamic acid 4-fluoro-phenyl ester] | 0.0028
CC(=O)N1CCC(C(=O)N2C[C@@H](N(C)C(=O)Oc3ccc(F)cc3)[C@](C)(c3ccc(Cl)cc3)C2)CC1 (racemic) [Example 27, rac-[(3S,4R)-1-(1-Acetyl-piperidine-4-carbonyl)-4-(4-chloro-phenyl)-4-methyl-pyrrolidin-3-yl]-methyl-carbamic acid 4-fluoro-phenyl ester] | 0.051
CC(C)C(=O)N1CCC(C(=O)N2C[C@H](c3ccc(Cl)cc3)[C@@](C)(N(C)C(=O)Oc3ccc(F)cc3)C2)CC1 (racemic) [Example 1, rac-[(3R,4S)-4-(4-Chloro-phenyl)-1-(1-isobutyryl-piperidine-4-carbonyl)-3-methyl-pyrrolidin-3-yl]-methyl-carbamic acid 4-fluoro-phenyl ester] | 0.0105
CN(C(=O)Oc1ccc(F)cc1)[C@@]1(C)CN(C(=O)C2CCN(C(=O)C3(C)CC3)CC2)C[C@@H]1c1ccc(Cl)cc1 (racemic) [Example 7, rac-{(3R,4S)-4-(4-Chloro-phenyl)-3-methyl-1-[1-(1-methyl-cyclopropanecarbonyl)-piperidine-4-carbonyl]-pyrrolidin-3-yl}-methyl-carbamic acid 4-fluoro-phenyl ester] | 0.005
Cc1ccc(N2CCC(C(=O)N3C[C@@H](N(C)C(=O)Oc4ccc(F)cc4)[C@](C)(c4ccc(Cl)cc4)C3)CC2)nc1 (racemic) [Example 29, rac-[(3S,4R)-4-(4-Chloro-phenyl)-4-methyl-1-(5′-methyl-3,4,5,6-tetrahydro-2H-[1,2′]bipyridinyl-4-carbonyl)-pyrrolidin-3-yl]-methyl-carbamic acid 4-fluoro-phenyl ester] | 0.0245

— patent publication US8618303B2, “Pyrrolidine derivatives” (Hoffmann-La Roche Inc., priority 2011, dated 2013)
